We go through eleven compounds from ChEMBL document CHEMBL4808253, “Discovery of 1,3,4-oxadiazole derivatives as potential antitumor agents inhibiting the programmed cell death-1/programmed cell death-ligand 1 interaction” (Bioorg Med Chem, 2021).

The target of data set [1] is T1, Programmed cell death protein 1/Programmed cell death 1 ligand 1 (Homo sapiens, UniProt Q15116+Q9NZQ7). As to the kind of experiment: Inhibition of PD1/PD-L1 (unknown origin). In kind it is protein-complex assay.
Data set [2] has as its target T1, Programmed cell death protein 1/Programmed cell death 1 ligand 1. As to the kind of experiment: Inhibition of PD1/PD-L1 (unknown origin) protein-protein interaction measured after 135 mins by TR-FRET assay relative to control. In kind it is protein-complex assay. A general note: In TR-FRET formats the signal depends on donor and acceptor labels being close together.

For data set [3], the system named is CT26. As to the kind of experiment: Antiproliferative activity against […] cells assessed as inhibition of cell growth at 11.11 uM incubated for 48 hrs by MTT assay. The data set is classed as functional. As to conditions: Mus musculus. A general note: Formazan colour is commonly taken as a measure of viable cells.
The subject of data set [4] is CT26. As to the kind of experiment: Antiproliferative activity against mouse CT26 cells assessed as inhibition of cell growth incubated for 48 hrs by MTT assay. In kind it is functional, cell-based. The note with it: CT26, 48 h.
Data set [5] deals with CT26. As to the kind of experiment: Antitumor activity against mouse CT26 cells allografted in BALB/c mouse assessed as tumor growth inhibition at 15 mg/kg, ip for 24 hrs measured for 14 days relative to control. In kind it is functional. The note with it: 336 h, time 14 day, read-out: TGI.
Data set [6] in a line: Toxicity in BALB/c mouse allografted with mouse CT26 cells assessed as unusual behaviour at 15 mg/kg, ip for 24 hrs measured for 14 days relative to control. The data set is classed as organism-based. As to conditions: in vivo, 336 h, time 14 day.
Data set [7] is described as follows: Toxicity in BALB/c mouse allografted with mouse CT26 cells assessed as body weight change at 15 mg/kg, ip for 24 hrs measured for 14 days relative to control. In kind it is organism-based. The note with it: in vivo, 336 h, time 14 day.
For data set [8], the system named is CT26. As to the kind of experiment: Antitumor activity against mouse CT26 cells allografted in BALB/c mouse assessed as tumor growth inhibition at 15 mg/kg, ip for 48 hrs measured for 14 days in presence of 5-Fu relative to control. In kind it is functional. As to conditions: read-out: TGI.
Data set [9] is described as follows: Toxicity in BALB/c mouse allografted with mouse CT26 cells assessed as body weight change at 15 mg/kg, ip for 48 hrs measured for 14 days relative to control. As to conditions: in vivo, 336 h, time 14 day. In kind it is organism-based.
Data set [10] has as its system CT26. As to the kind of experiment: Antitumor activity against […] in BALB/c mouse assessed as increase in infiltration of CD4+ T cells into tumor cells at 15 mg/kg, ip for 48 hrs in presence of 5-Fu by immunohistochemistry analysis. The data set is classed as functional, organism-based.
For data set [11], the system named is CT26. As to the kind of experiment: Antitumor activity against […] in BALB/c mouse assessed as increase in infiltration of CD4+ T cells into tumor cells at 15 mg/kg, ip for 48 hrs measured for 14 days relative to control. The data set is classed as functional, organism-based.
Data set [12] in a line: Toxicity in BALB/c mouse allografted with mouse CT26 cells assessed as unusual behaviour at 15 mg/kg, ip for 48 hrs measured for 14 days relative to control. The data set is classed as organism-based. As to conditions: in vivo, 336 h, time 14 day.
Data set [13] has as its system CT26. As to the kind of experiment: Antitumor activity against mouse CT26 cells allografted in BALB/c mouse assessed as tumor growth inhibition at 15 mg/kg, ip for 48 hrs measured for 14 days relative to control. The note with it: 336 h, time 14 day, read-out: TGI. In kind it is functional.
The nature of data set [14]: Toxicity in BALB/c mouse allografted with mouse CT26 cells assessed as body weight change at 30 mg/kg, ip for 48 hrs measured for 14 days relative to control. In kind it is organism-based. The note with it: in vivo, 336 h, time 14 day.
Data set [15] in a line: Toxicity in BALB/c mouse allografted with mouse CT26 cells assessed as unusual behaviour at 30 mg/kg, ip for 48 hrs measured for 14 days relative to control. In kind it is organism-based. The note with it: in vivo, 336 h, time 14 day.
Data set [16] deals with CT26. As to the kind of experiment: Antitumor activity against mouse CT26 cells allografted in BALB/c mouse assessed as tumor growth inhibition at 30 mg/kg, ip for 48 hrs measured for 14 days relative to control. In kind it is functional. As to conditions: 336 h, time 14 day, read-out: TGI.

Molecules are shown by their SMILES. Active and inactive are the calls of the source. The rule behind the calls is not given here. Where only a bound is given, the exact number is not on record here.

Usually IC50 stands for the point on the concentration scale where inhibition reaches its midpoint. The term inhibition denotes the drop in the measured response relative to a control, in per cent.

T1 sequence (Q15116 whole entry): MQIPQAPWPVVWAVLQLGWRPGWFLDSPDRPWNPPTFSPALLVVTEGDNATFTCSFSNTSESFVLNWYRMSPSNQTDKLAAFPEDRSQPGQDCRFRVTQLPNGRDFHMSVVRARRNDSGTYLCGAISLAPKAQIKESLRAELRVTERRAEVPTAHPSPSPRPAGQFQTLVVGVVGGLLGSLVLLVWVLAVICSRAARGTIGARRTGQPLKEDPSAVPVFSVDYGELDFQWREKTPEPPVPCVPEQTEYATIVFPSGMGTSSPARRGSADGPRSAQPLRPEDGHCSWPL
T1 sequence (Q9NZQ7 whole entry): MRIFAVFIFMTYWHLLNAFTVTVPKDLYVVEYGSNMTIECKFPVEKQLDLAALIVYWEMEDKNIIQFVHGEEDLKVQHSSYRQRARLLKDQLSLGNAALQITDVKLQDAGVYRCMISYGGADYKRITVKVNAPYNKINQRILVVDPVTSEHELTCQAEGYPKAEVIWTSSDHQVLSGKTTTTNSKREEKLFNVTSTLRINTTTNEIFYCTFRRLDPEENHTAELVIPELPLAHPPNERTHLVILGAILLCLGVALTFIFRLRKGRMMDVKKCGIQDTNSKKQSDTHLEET

`Cc1c(-c2nc3cc(CN4CCCC[C@H]4C(=O)O)cc(Cl)c3o2)cccc1-c1cccc(NC(=O)c2ccc(CNCCO)cn2)c1Cl` registered an IC50 in [1] of under 10 nM.
As for `Cc1c(COc2ccc(CNC(CO)(CO)CO)c(OCc3nnc(-c4ccccc4)o3)c2)cccc1-c1cccc(OCCCN2CCOCC2)c1`, 642 nM corresponded to half-maximal inhibition in data set [2] (IC50).
`Cc1c(COc2ccc(CNC(CO)(CO)CO)c(OCc3nc(-c4ccc(F)cc4)cs3)c2)cccc1-c1cccc(OCCCN2CCC(CO)CC2)c1`: in [2], the IC50 turned out to be 398 nM.
The same measure, in the same setting: for `Cc1ccccc1-c1cccc(COc2ccc(CNC(CO)(CO)CO)c(OCc3nnc(-c4ccccc4)o3)c2)c1C` the value was 150 nM; for `Cc1c(COc2ccc(CNC(CO)(CO)CO)c(OCc3nc(-c4ccc(F)cc4)cs3)c2)cccc1-c1cccc(OCCCN2CCC(O)CC2)c1C`, 167 nM.
With `COc1nc(OCc2cccc(-c3ccccc3)c2C)ccc1CNCCNC(C)=O`, the inhibition at 11.11 µM with CT26 [3] is 75%. Also, the IC50 in the data set on CT26 [4] came to 3350 nM. In addition, in the data set with CT26 [5], the inhibition in vivo at 15 mg/kg was 22.9%. The Activity result in [6] and in data set [7] was “Non-Toxic” in each case.
As to `CS(=O)(=O)c1cncc(COc2nc(O[C@H]3CCc4c(-c5cccc6c5CC[C@@H]6Oc5nc(OCc6cncc(S(C)(=O)=O)c6)c(CN6C[C@@H](O)C[C@H]6C(=O)O)cc5Cl)cccc43)c(Cl)cc2CN2C[C@@H](O)C[C@H]2C(=O)O)c1`, in data set [1], half-maximal inhibition (IC50) required 0.051 nM.
Turning to `Cc1c(-c2nc3cc(CN4CC[C@@](C)(C(=O)O)C4)cc(C#N)c3o2)cccc1-c1cccc(NC(=O)c2nc3c(n2C)CCN(C[C@@H](C)O)C3)c1Cl`, the IC50 in [1] was under 10 nM.
As to `C[C@@](CO)(NCc1cc(Cl)c(O[C@H]2CCc3c(-c4cccc5c4CC[C@@H]5Oc4nc(OCc5cncc(S(C)(=O)=O)c5)c(CN[C@@](C)(CO)C(=O)O)cc4Cl)cccc32)nc1OCc1cncc(S(C)(=O)=O)c1)C(=O)O`, the 50% inhibitory concentration (IC50) in [1] was determined as 0.058 nM.
As for `Cc1c(COc2ccc(CNC(CO)(CO)CO)c(OCc3nnc(-c4ccccc4)o3)c2)cccc1-c1cccc(OCCCN2CCC(CO)CC2)c1`, the inhibition in vivo at 15 mg/kg was 64.6% in the data set with CT26 [8] and 35.7% in the data set with CT26 [13]. Besides, the Activity result in [9] and in data set [12] was “Non-Toxic” each time. In addition, the inhibition at 11.11 µM in the data set on CT26 [3] stood at 75%. Besides, the outcome in the data set on CT26 [10] and in the data set with CT26 [11] was Active. Also, the figures for the IC50 (with CT26 [4]; in data set [2]) were 19800 nM and 38 nM, respectively.
Regarding `O=c1[nH]cc(F)c(=O)[nH]1` [FLUOROURACIL], the Activity entry in data set [14] and in [15] was “Non-Toxic” each time. The inhibition in vivo at 30 mg/kg in the data set with CT26 [16] is 29.8%.
